Reference: ChEMBL document CHEMBL3739267, “Synthesis of 2,6-dicarbethoxy-3,5-diaryltetrahydro-1,4-thiazine-1,1-dioxide derivatives as potent anticonvulsant agents” (Eur J Med Chem, 2015)
Activity calls are given as the source filed them. The rule behind the calls is not given here.

Tests used:
[1] = system: Mus musculus; assay: Anticonvulsant activity in ip dosed Swiss albino mouse assessed as reduction of maximal electroshock-induced seizure after 0.5 hrs; assay type: functional; details: read-out: MED
[2] = system: Mus musculus; assay: Anticonvulsant activity in ip dosed Swiss albino mouse assessed as reduction of maximal electroshock-induced seizure after 4 hrs; assay type: functional; details: read-out: MED
[3] = system: Mus musculus; assay: Anticonvulsant activity in Swiss albino mouse assessed as reduction of subcutaneous pentylenetetrazole-induced seizure at 300 mg/kg, ip after 0.5 hrs; assay type: functional, organism-based
[4] = system: Mus musculus; assay: Anticonvulsant activity in Swiss albino mouse assessed as reduction of subcutaneous pentylenetetrazole-induced seizure at 300 mg/kg, ip after 4 hrs; assay type: functional, organism-based
[5] = system: Mus musculus; assay: Neurotoxicity in ip dosed Swiss albino mouse assessed as inability of animal to maintain equilibrium on rod after 4 hrs by rotarod test; assay type: toxicity, organism-based; details: in vivo
[6] = system: Mus musculus; assay: Neurotoxicity in Swiss albino mouse assessed as inability of animal to maintain equilibrium on rod at 300 mg/kg, ip after 0.5 hrs by rotarod test; assay type: toxicity, organism-based; details: in vivo
[7] = system: Mus musculus; assay: Anticonvulsant activity in ip dosed Swiss albino mouse assessed as reduction of subcutaneous pentylenetetrazole-induced seizure after 0.5 hrs; assay type: functional; details: read-out: MED
[8] = system: Mus musculus; assay: Anticonvulsant activity in ip dosed Swiss albino mouse assessed as reduction of subcutaneous pentylenetetrazole-induced seizure after 4 hrs; assay type: functional; details: read-out: MED
[9] = (§1) Neurotoxicity in ip dosed Swiss albino mouse assessed as inability of animal to maintain equilibrium on rod after 0.5 hrs by rotarod test; assay type: toxicity, organism-based; details: Swiss albino, in vivo
[10] = system: Mus musculus; assay: Neurotoxicity in Swiss albino mouse assessed as inability of animal to maintain equilibrium on rod at 300 mg/kg, ip after 4 hrs by rotarod test; assay type: toxicity, organism-based; details: in vivo
[11] = system: Mus musculus; assay: Anticonvulsant activity in ip dosed Swiss albino mouse assessed as reduction of maximal electroshock-induced seizure; assay type: functional
[12] = system: Mus musculus; assay: Anticonvulsant activity in ip dosed Swiss albino mouse assessed as reduction of subcutaneous pentylenetetrazole-induced seizure; assay type: functional
[13] = system: Mus musculus; assay: Protective index, ratio of TD50 for ip dosed Swiss albino mouse assessed as inability of animal to maintain equilibrium on rod after 0.5 hrs by rotarod test to ED50 for Swiss albino mouse assessed as reduction of maximal electroshock-induced seizure; assay type: functional
[14] = system: Mus musculus; assay: Protective index, ratio of TD50 for ip dosed Swiss albino mouse assessed as inability of animal to maintain equilibrium on rod after 0.5 hrs by rotarod test to ED50 for Swiss albino mouse assessed as subcutaneous pentylenetetrazole-induced seizure; assay type: functional
[15] = system: Mus musculus; assay: as §1; assay type: toxicity, organism-based; details: in vivo, 0.5 h
[16] = system: Mus musculus; assay: Anticonvulsant activity in Swiss albino mouse assessed as reduction of maximal electroshock-induced seizure at 300 mg/kg, ip after 0.5 hrs; assay type: functional, organism-based
[17] = system: Mus musculus; assay: Anticonvulsant activity in Swiss albino mouse assessed as reduction of maximal electroshock-induced seizure at 300 mg/kg, ip after 4 hrs; assay type: functional, organism-based

| SMILES | minimal effective dose [1] | minimal effective dose [2] | Activity [3] | Activity [4] | MTC [5] | Activity [6] | minimal effective dose [7] | minimal effective dose [8] | TD50 at 0.5 h [9] | Activity [10] | ED50 [11] | ED50 [12] | Ratio TD50/ED50 [13] | Ratio TD50/ED50 [14] | MTC [15] | Activity [16] | Activity [17] |
| --- | --- | --- | --- | --- | --- | --- | --- | --- | --- | --- | --- | --- | --- | --- | --- | --- | --- |
| CCOC(=O)C1C(c2ccco2)NC(c2ccco2)C(C(=O)OCC)S1(=O)=O (stereo not drawn) | 300 mg/kg | 300 mg/kg | inactive | inactive | 300 mg/kg | Non-toxic | – | – | – | – | – | – | – | – | – | – | – |
| CCOC(=O)C1C(c2ccc(OC)c(OC)c2)NC(c2ccc(OC)c(OC)c2)C(C(=O)OCC)S1(=O)=O (stereo not drawn) | 100 mg/kg | 300 mg/kg | – | inactive | 300 mg/kg | Non-toxic | 300 mg/kg | – | – | – | – | – | – | – | – | – | – |
| CCOC(=O)C1C(c2ccccc2)NC(c2ccccc2)C(C(=O)OCC)S1(=O)=O (stereo not drawn) | 30 mg/kg | 100 mg/kg | – | – | – | Non-toxic | 300 mg/kg | 300 mg/kg | 131 mg/kg | Non-toxic | 14.8 mg/kg | 58.6 mg/kg | 8.8 | 2.2 | – | – | – |
| CCOC(=O)C1C(c2ccc(OC)cc2)NC(c2ccc(OC)cc2)C(C(=O)OCC)S1(=O)=O (stereo not drawn) | 100 mg/kg | 300 mg/kg | – | inactive | 300 mg/kg | Non-toxic | 300 mg/kg | – | – | – | – | – | – | – | – | – | – |
| NC(=O)N1c2ccccc2C=Cc2ccccc21 [CARBAMAZEPINE] | – | – | – | – | – | – | – | – | – | – | 11.4 mg/kg | > 100 mg/kg | – | – | – | – | – |
| CCOC(=O)C1C(c2cc3ccccc3nc2Cl)NC(c2cc3ccccc3nc2Cl)C(C(=O)OCC)S1(=O)=O (stereo not drawn) | 30 mg/kg | 100 mg/kg | – | – | – | Non-toxic | 300 mg/kg | 300 mg/kg | 128 mg/kg | Non-toxic | 12.4 mg/kg | 62.7 mg/kg | 10.3 | 2 | – | – | – |
| CCOC(=O)C1C(c2ccc(Cl)cc2)NC(c2ccc(Cl)cc2)C(C(=O)OCC)S1(=O)=O (stereo not drawn) | 30 mg/kg | 30 mg/kg | – | – | – | Non-toxic | 100 mg/kg | 300 mg/kg | 289 mg/kg | Non-toxic | 10.2 mg/kg | 50.5 mg/kg | 28.3 | 5.7 | – | – | – |
| CCOC(=O)C1C(c2cccc(Cl)c2)NC(c2cccc(Cl)c2)C(C(=O)OCC)S1(=O)=O (stereo not drawn) | 100 mg/kg | 300 mg/kg | – | inactive | – | – | 300 mg/kg | – | – | Non-toxic | – | – | – | – | 300 mg/kg | – | – |
| CCOC(=O)C1C(c2cccs2)NC(c2cccs2)C(C(=O)OCC)S1(=O)=O (stereo not drawn) | 100 mg/kg | 300 mg/kg | – | inactive | 300 mg/kg | Non-toxic | 300 mg/kg | – | – | – | – | – | – | – | – | – | – |
| CCOC(=O)C1C(c2ccc[nH]2)NC(c2ccc[nH]2)C(C(=O)OCC)S1(=O)=O (stereo not drawn) | 100 mg/kg | 300 mg/kg | – | inactive | – | – | 300 mg/kg | – | – | Non-toxic | – | – | – | – | 300 mg/kg | – | – |
| CCCC(CCC)C(=O)O [VALPROIC ACID] | – | – | – | – | – | – | – | – | – | – | – | 149 mg/kg | – | – | – | – | – |
| CCOC(=O)C1C(c2cccnc2)NC(c2cccnc2)C(C(=O)OCC)S1(=O)=O (stereo not drawn) | 300 mg/kg | 300 mg/kg | inactive | inactive | 300 mg/kg | Non-toxic | – | – | – | – | – | – | – | – | – | – | – |
| CCC1(c2ccccc2)C(=O)NC(=O)NC1=O [PHENOBARBITAL] | – | – | – | – | – | – | – | – | 68.2 mg/kg | – | 20.6 mg/kg | 13.2 mg/kg | – | – | – | – | – |
| CCOC(=O)C1C(c2ccc(C)cc2)NC(c2ccc(C)cc2)C(C(=O)OCC)S1(=O)=O (stereo not drawn) | 30 mg/kg | 100 mg/kg | – | – | – | Non-toxic | 300 mg/kg | 300 mg/kg | 227 mg/kg | Non-toxic | 14.4 mg/kg | 90.2 mg/kg | 15.7 | 2.5 | – | – | – |
| CCOC(=O)C1C(c2ccccn2)NC(c2ccccn2)C(C(=O)OCC)S1(=O)=O (stereo not drawn) | 300 mg/kg | 300 mg/kg | inactive | inactive | 300 mg/kg | Non-toxic | – | – | – | – | – | – | – | – | – | – | – |
| O=C1NC(=O)C(c2ccccc2)(c2ccccc2)N1 [PHENYTOIN] | 30 mg/kg | 30 mg/kg | inactive | inactive | 100 mg/kg | – | 100 mg/kg | – | – | – | 9.8 mg/kg | > 300 mg/kg | – | – | 100 mg/kg | – | – |
| CCC1(C)CC(=O)NC1=O (stereo not drawn) [ETHOSUXIMIDE] | – | – | – | – | – | Non-toxic | 100 mg/kg | 300 mg/kg | – | Non-toxic | – | – | – | – | – | inactive | inactive |
| CCOC(=O)C1C(c2cc3ccccc3[nH]2)NC(c2cc3ccccc3[nH]2)C(C(=O)OCC)S1(=O)=O (stereo not drawn) | 30 mg/kg | 100 mg/kg | – | – | – | Non-toxic | 300 mg/kg | 300 mg/kg | 119 mg/kg | Non-toxic | 13.2 mg/kg | 56.8 mg/kg | 9 | 2.1 | – | – | – |
| CCOC(=O)C1C(c2ccsc2)NC(c2ccsc2)C(C(=O)OCC)S1(=O)=O (stereo not drawn) | 100 mg/kg | 300 mg/kg | – | inactive | 300 mg/kg | Non-toxic | 300 mg/kg | – | – | – | – | – | – | – | – | – | – |
| CCOC(=O)C1C(c2ccc3c(c2)OCO3)NC(c2ccc3c(c2)OCO3)C(C(=O)OCC)S1(=O)=O (stereo not drawn) | 30 mg/kg | 100 mg/kg | – | – | – | Non-toxic | 300 mg/kg | 300 mg/kg | 248 mg/kg | Non-toxic | 27.4 mg/kg | 220 mg/kg | 9 | 1.1 | – | – | – |
| CCOC(=O)C1C(c2ccc([N+](=O)[O-])cc2)NC(c2ccc([N+](=O)[O-])cc2)C(C(=O)OCC)S1(=O)=O (stereo not drawn) | 30 mg/kg | 100 mg/kg | – | – | – | Non-toxic | 300 mg/kg | 300 mg/kg | 190 mg/kg | Non-toxic | 11.4 mg/kg | 73.2 mg/kg | 16.7 | 2.6 | – | – | – |
| CCOC(=O)C1C(c2ccccc2Cl)NC(c2ccccc2Cl)C(C(=O)OCC)S1(=O)=O (stereo not drawn) | 100 mg/kg | 300 mg/kg | – | inactive | – | Non-toxic | 300 mg/kg | – | – | Non-toxic | – | – | – | – | – | – | – |
